From article PMC12040169 (PLOS Biology, 2025) come the findings set out here.

Each structure is given as a SMILES string.

As a reminder, the viability is a read-out of living cells in per cent, often relative to untreated cells.

The first data set can be described thus: in vitro. The conditions noted are these: human, hela cells.
Turning to `CNC(=O)Oc1ccc(C)cc1C(=O)N(C)C` [CBK012319], the viability at 28.5 h, 10 µM was 111%.

Still in this data set, the particulars now being: human, hela cells, % viability.
With `CCNc1cncc(-c2cncc(OC)c2)n1` [CBK065366], the viability at 28.5 h, 10 µM worked out at 91.9%.

For the compound `COc1ccc(CNC(=O)c2sccc2S(=O)(=O)N2CCCCC2)cc1` [CBK305904], the viability at 28.5 h, 10 µM was 101%. Same read-out and setting: the figure for `Cc1ccc(S(=O)(=O)Nc2ccccc2C(=O)O)cc1[N+](=O)[O-]` [CBK042374] is 84.5%; for `O=C1N/C(=N/N=C\c2cccc([N+](=O)[O-])c2)SC1Cc1ccc(Br)cc1` (stereo not drawn) [CBK263125] it is 101%; for `COc1ccc(NC(S)=NCCN2CCC(C)CC2)cc1Cl` [CBK267268] it is 84%. With `COc1ccc(C(C)C)cc1-c1nccnc1N[C@@H](CO)C(C)C` [CBK036711], the viability at 28.5 h, 10 µM worked out at 109%. The same measure, in the same setting: the value for `COc1ccc(-n2c(=O)[nH]c3ncc(-c4ccco4)nc32)c(C)c1` [CBK065019] was 101%. The same measure, in the same setting: the figure for `NC(=S)N/N=C/c1c[nH]nc1-c1ccccc1` [CBK009705] is 96.5%. For `CCOC(=O)CSc1nc(-c2ccc(C)cc2)cs1` [CBK007039], the viability at 28.5 h, 10 µM is 90.4%. Regarding `CCCCn1cc(CN(C)C)c2c(C)ccnc21` [CBK008697], the viability at 28.5 h, 10 µM turned out to be 102%. For the compound `O=C(CCc1ccncc1)N1CCOC(c2ccc(F)cc2F)C1` (stereo not drawn) [CBK304692], the viability at 28.5 h, 10 µM is 98.3%. The same measure, in the same setting: the value for `CN1CCCCC[C@@H]2[C@@H]1[C@H](c1ccccc1)CN2C(=O)CN1CCCCCC1=O` [CBK285524] was 87.5%; that for `O=C(c1ccc(F)cc1)N1CCCC(c2nccnc2-c2cccc(C(F)(F)F)c2)C1` (stereo not drawn) [CBK286142] was 98.3%. Take `CCn1cc(Cl)c(C(=O)NC2CCN(c3cc(C)n[nH]3)CC2)n1` [CBK304322]: the viability at 28.5 h, 10 µM is 91.8%. The same measure, in the same setting: the value for `CCc1nc2ccc(C(=O)Nc3ccc(OC)c(OC)c3)cn2c1N(C)C(=O)Nc1ccccc1OC` [CBK145875] was 117%; that for `O=C(NCc1cccs1)c1ccc(-n2ccnc2)c(-n2cccc2)c1` [CBK285366] was 102%. As to `Cc1nc2ccc(C(=O)N3CCCCC3)cn2c1N(C)C=O` [CBK145480], the viability at 28.5 h, 10 µM is 100%. The same measure, in the same setting: the value for `Cn1cc(C(=O)CCC(=O)NC2CCCN(c3ncccn3)C2)cn1` (stereo not drawn) [CBK305480] was 94.1%. Take `CCc1nc2ccc(C(=O)N(C)CCN(C)C)cn2c1N(CC)Cc1cccc(Br)c1` [CBK146962]: the viability at 28.5 h, 10 µM amounted to 93.1%.

Turning to `COc1cc(F)cc(OC2CCNCC2)c1NC(=O)C1=CC(=O)CC(C)(C)O1` [CBK050352T], the viability at 28.5 h, 10 µM turned out to be 96.9%.

In the case of `CNC1CCN(S(=O)(=O)c2sc3ccc(C(C)C)cc3c2C)C1` (stereo not drawn) [CBK170067], the viability at 28.5 h, 10 µM is 110%.

As to `Cc1noc(C)c1CN1CCC(Cc2ccccc2)CC1` [CBK305752], the viability at 28.5 h, 10 µM was 96.8%.

In the case of `COC(=O)CCCC(=O)n1c(=O)n(Cc2ccc(S(C)(=O)=O)cc2)c2ccccc21` [CBK106538], the viability at 28.5 h, 10 µM came to 105%.

Turning to `CN(CCCc1cnn(C)c1)c1nc(N)nc2c1CCCC2` [CBK306766], the viability at 28.5 h, 10 µM was 96.5%. Still for that read-out and setting: the value for `CC(=O)Nc1nc(-c2ccc(Cl)s2)cs1` [CBK287317] was 89.5%; that for `Cc1ccc(NC(=O)c2cc(NC(=O)c3ccccc3C(=O)O)ccc2N2CCCCC2)cc1` [CBK265332] was 100%. Still for that read-out and setting: the value for `NC(=O)c1ccccc1/N=C/c1ccc([N+](=O)[O-])o1` [CBK261675] was 105%; that for `Cc1ccc(Nc2ncc(C(=O)NCc3ccccn3)c3ccccc23)cc1Cl` [CBK291113] was 109%; that for `CS(=O)(=O)Nc1cc2ccccc2c(-c2ccc(OC(F)(F)F)cc2)n1` [CBK085757] was 121%. Still for that read-out and setting: the value for `Cc1nc2ccc(NC(=O)CC3CCN(C(=O)CC4CCCCC4)CC3)cc2[nH]1` [CBK285967] was 94.6%.

On to `COc1ccc(S(=O)(=O)N(Cc2c(F)cccc2F)C2CCN(C)CC2)cc1` [CBK161910T], for which the viability at 28.5 h, 10 µM was determined as 109%. Consider `COc1ccc(-c2nc(C3CCN(C(=O)NC(C)(C)C)CC3)n3ccccc23)cc1` [CBK047080], for which the viability at 28.5 h, 10 µM stood at 97.4%. On the same count and under the same terms, the figure for `O=c1[nH]c2ncc(-c3ccsc3)nc2n1Cc1ccccc1` [CBK064227] is 96.7%. On the same count and under the same terms, the figure for `Brc1cn2ccnc2c(N2CCCC2)n1` [CBK085449] is 117%. On the same count and under the same terms, the figure for `Cc1c(NC(=O)CSCc2ccc(Cl)cc2Cl)cccc1C(=O)O` [CBK131704] is 104%.

For the compound `CC1=C[C@@H](CNS(C)(=O)=O)[C@H](C(C)C)C[C@H]1CC(=O)Nc1ccccn1` [CBK289208], the viability at 28.5 h, 10 µM is 89.3%. On to `Cc1nc2c(c(=O)[nH]1)CN(Cc1cc(F)ccc1F)CC2` [CBK283953], for which the viability at 28.5 h, 10 µM is 86.9%. Take `Cc1cc(=O)n2c3c(cc(S(=O)(=O)NCC4CCCO4)cc13)CC2` (stereo not drawn) [CBK307595]: the viability at 28.5 h, 10 µM was 103%. Same read-out and setting: the value for `CS(=O)(=O)CCNC(=O)c1cnc(-c2cccc(C(F)(F)F)c2)c(-c2ccncc2)c1` [CBK036661] was 105%. As to `CC1(C)CC(CCNC(=O)CCC(=O)O)(c2ccccc2)CCO1` (stereo not drawn) [CBK218198], the viability at 28.5 h, 10 µM is 85.7%. Regarding `O=C(NCc1ccco1)c1nccnc1-c1ccc(COc2ccc3c(c2)CCCC3)cc1` [CBK050851], the viability at 28.5 h, 10 µM was 89.8%. In the case of `CC(C)(C)C1=CC2=NC3(CCCCCC3)[C@@H]3C[C@@H](O)[C@@H](O)[C@@H]3N2O1` [CBK303252], the viability at 28.5 h, 10 µM amounted to 91.9%. The same measure, in the same setting: the figure for `COc1cc2c(cc1NC(=O)C/C(C)=N/NC(=O)c1ccccc1F)oc1ccccc12` [CBK262437] is 106%; for `O=c1cc(O)c2c(=O)n(-c3ccccc3)c(-c3ccccc3)cc2o1` [CBK006116] it is 89.1%.

For `CC1Cc2ccccc2N1C(=O)C1C2C=CC(O2)C1C(=O)O` (stereo not drawn) [CBK286891], the viability at 28.5 h, 10 µM was 86.9%. Turning to `CCCn1cc(CN2C3CCC2CC(O)(c2ccccc2F)C3)cn1` (stereo not drawn) [CBK282664], the viability at 28.5 h, 10 µM came out at 99.3%.

As to `Cc1nnc(SCC(=O)NC2CC3CCC2C3)[nH]1` (stereo not drawn) [CBK270239], the viability at 28.5 h, 10 µM came out at 88.1%. In the case of `Cc1ccc(S(=O)(=O)NCC(=O)Nc2ccc(C)cc2C(=O)c2ccccc2)cc1` [CBK265199], the viability at 28.5 h, 10 µM amounted to 85.8%. With `Fc1cccc(-c2c[nH]nc2C2CCOCC2)c1` [CBK283465], the viability at 28.5 h, 10 µM came to 91%. The same measure, in the same setting: the figure for `O=C(Cn1c(C2CCOCC2)cc2cccnc21)NC1CCCC1` [CBK285157] is 86.3%; for `Cc1ccc(-c2nc(C3CCN(C(=O)NC(C)C)CC3)n3ccccc23)cc1` [CBK046861] it is 95%. Take `Cc1ccc(F)c(OC2(C(=O)O)CCN(Cc3cccc(C)n3)CC2)c1` [CBK306541]: the viability at 28.5 h, 10 µM worked out at 98.8%. On the same count and under the same terms, the figure for `COc1cccc(-c2cnc3[nH]c(=O)n(CCCO)c3n2)c1` [CBK065036] is 93.3%. As for `Cc1ccc(-c2ncc(OCCN3CCCC3=O)nc2N)c(C)c1` [CBK145127], the viability at 28.5 h, 10 µM was 99.3%. In the case of `COc1cccc(Nc2cc(-c3ccco3)ncn2)c1OC` [CBK090727], the viability at 28.5 h, 10 µM came to 92.2%. The same measure, in the same setting: the value for `Cc1noc(C)c1CC(=O)N1CCC(c2ccccc2)C1` (stereo not drawn) [CBK281959] was 102%.
